The values below come from US20240382475A1, “Quinazoline Derivative, Or Preparation Method Therefor And Use Thereof” (Zhejiang Hisun Pharmaceutical Co., Ltd., priority 2021, published 2024).

The nature of series [1]: Pharmacokinetic evaluation in ICR mice. It is filed as in vivo. Conditions: male, mouse, plasma, PO 10 mg/kg. An excerpt: ICR normal mice were used as test animals, and LC/MS/MS was used to determine the drug concentrations at different moments in plasma of ICR mice by intragastric administration. The pharmacokinetic behavior of the compounds of the present invention in ICR mice was studied to evaluate the pharmacokinetic characteristics of the above compounds.
Compound 4, Compound 26 and Compound 32.
ICR mice, male, 27.8-38 g, were purchased from Zhejiang Vital River Laboratory Animal Technology Co., Ltd.
An appropriate amount of the compound was weighed, and DMA:30% Solutol HS-15:Saline=5:5:90 (v/v/v) was used as the solvent to prepare a fully dissolved solution, and then administered to obtain a 1 mg/mL colorless solution.
The ICR mice in the intragastric group of each compound to be tested (nine mice in each group) were fasted overnight followed by intragastric administration (administration dosage was 10 mg/kg and the administration volume was 10 mL/kg), and ate 4 hours after administration.
0.1 mL of blood was collected via orbit before administration and 0.25 hour, 0.5 hour, 1 hour, 2 hours, 4 hours, 8 hours, 12 hours, and 24 hours after administration, and placed in EDTA-K2 anticoagulant tubes. The collected blood samples were placed on ice, and plasma was separated by centrifugation (centrifugation condition: 1500 g, 10 minutes). The collected plasma samples were stored at −40˜−20° C. before analysis.
LC-MS/MS was used to determine the content of the compound to be tested in mouse plasma after intragastric administration.

Series [2] has as its system human lung cancer NCI-H2122 subcutaneous xenotransplanted tumor. The series is described as follows: Pharmacodynamic evaluation in nude mouse subcutaneous xenotransplanted model of human lung cancer NCI-H2122. It is filed as in vivo, Balb/c nude mouse. Here is the method: The anti-tumor effect and safety of compound 11 of the present invention were evaluated in a Balb/c nude mouse animal model of subcutaneous xenotransplanted NCI-H2122.
BALB/c; nude mice, female, 6-7 weeks old (the age of mice when tumor cells were inoculated), purchased from Jiangsu Jicui Yaokang Biotechnology Co., Ltd.
The solvent control group was given DMSO:castor oil:5% glucose injection=20:10:70 (v/v/v).
AMG-510: an appropriate amount of AMG-510 was weighed, and an appropriate amount of DMSO:castor oil:5% glucose injection=20:10:70 (v/v/v) was added. After the above mixture was fully dissolved, an appropriate amount of 1 M hydrochloric acid was added, vortexed and mixed to prepare a solution with a concentration of 3 mg/mL.
Compound 11: an appropriate amount of compound 11 was weighed, and an appropriate amount of DMSO:castor oil:5% glucose injection=20:10:70 (v/v/v) was added. After the above mixture was fully dissolved, an appropriate amount of 1 M hydrochloric acid was added, vortexed and mixed to prepare a solution with a concentration of 3 mg/mL.
H2122 cells were cultured in 1640 culture medium containing 10% fetal bovine serum and 1% penicillin-streptomycin-amphotericin B solution. H2122 cells in the exponential growth phase were collected and resuspended in matrigel solution (matrigel:PBS=1:1 (V/V)) to a suitable concentration for subcutaneous tumor inoculation in nude mice.
Female Balb/c nude mice were subcutaneously inoculated with about 3.0×10^6H2122 cells on the right sides of their backs. When the average volume of the tumors reaches about 150-200 mm^3, the mice were randomly divided according to the tumor sizes with 6 mice in each group.
• Group 1 (G1), solvent control group; • Group 2 (G2), AMG-510 was given by intragastric administration at a dose of 30 mg/kg; • Group 3 (G3), Example 11 was given by intragastric administration at a dose of 30 mg/kg; • Group 4 (G4), AMG-510 and Example 11 were administered in combination, and the dosages were respectively: AMG-510, 30 mg/kg (QD); Example 11, 30 mg/kg (QD).
After tumor inoculation, routine monitoring included the effects of tumor growth and treatment on the normal behaviors of the animals, specifically the mobility, feeding and drinking, weight gain or loss, eyes, coat and other abnormalities of the experimental animals.
Calculation formulae for a relative tumor volume (RTV), a relative tumor proliferation rate (T/C) and a tumor inhibition percentage (IR) were as follows: • (1) TV (tumor volume)=½×a×b^2, wherein a and b represent the length and width of the tumor respectively; • (2) RTV (relative tumor volume)=Vt/Vo, wherein Vo is the tumor volume measured at the time of administration when grouping (i.e. do), and Vt is the tumor volume at each measurement; • (3) relative tumor proliferation rate T/C (%)=TRTV/CRTV×100%, wherein TRTV is the RTV of the treatment group and CRTV is the RTV of the control group; • (4) Tumor growth inhibition rate TGI(%)=(1−T/C)×100%; wherein, T and C are the relative tumor volumes of the treatment group and the control group at a specific time point. • (5) IR (%)=(1−TWt/TWc)×100%, wherein, TWt is the tumor weight of the treatment group and TWc is the tumor weight of the control group. The anti-tumor evaluation criteria are (cytotoxic drugs): T/C(%)>40% is invalid; T/C(%)≤40%, and after statistical processing, P<0.05 is effective.

[3] abbreviates: 16 days after administration, 30 mg/kg each agent.
The mark [4] stands for this setting: end of the experiment, 30 mg/kg each agent.

For the compound `COc1cc2nc(C)nc(N[C@H](C)c3cccc(C#N)c3C)c2cc1N1CCC2(CCOCC2)CC1` [Compound 4, (R)-3-(1-((7-methoxy-2-methyl-6-(3-oxa-9-azaspiro[5.5]undecan-9-yl)quinazolin-4-yl)amino)ethyl)-2-methylbenzonitrile], the AUC(0-t) in series [1] (read-out: Area under curve AUC0-t) stood at 5820 ng·h/mL. The half-life in series [1] (read-out: Half-life T1/2 (converted)) was 51 min. The Cmax in series [1] (read-out: Plasma concentration Cmax) is 2310 ng/mL.

On to `COc1cc2nc(C)nc(N[C@H](C)c3cccc(C#N)c3C)c2cc1N1CCC(C)(O)CC1` [Compound 11, (R)-3-(1-((6-(4-hydroxy-4-methylpiperidin-1-yl)-7-methoxy-2-methylquinazolin-4-yl)amino)ethyl)-2-methylbenzonitrile], for which the “Relative tumor volume (x ± S)” value in series [2] (setting [3]) came to 4.03 ± 0.67. The TGI % in series [2] (setting [3]) is 20.7%. For the same compound, the “Tumor volume (x ± S)” value worked out at 199 ± 18 mm^3 in series [2] (Day 0 after administration, 30 mg/kg each agent, intragastric); 329 ± 36 mm^3 in series [2] (Day 3 after administration, 30 mg/kg each agent, intragastric); 460 ± 53 mm^3 in series [2] (Day 7 after administration, 30 mg/kg each agent, intragastric); 551 ± 60 mm^3 in series [2] (Day 10 after administration, 30 mg/kg each agent, intragastric); 704 ± 88 mm^3 in series [2] (Day 14 after administration, 30 mg/kg each agent, intragastric); 757 ± 90 mm^3 in series [2] (Day 16 after administration, 30 mg/kg each agent, intragastric). Also, the “Tumor volume (x ± S)” value in series [2] (Table 11, 16 days after administration, 30 mg/kg each agent, in mm³) stood at 757 ± 90. In addition, in series [2] (setting [4]), the “Inhibition rate of tumor weight (%)” value is given as 16.8%. Further, the “Tumor weight (g) (x ± S)” value in series [2] (setting [4]) worked out at 0.6283 ± 0.0663 g. Besides, the “anti-tumor activity (conclusion in words)” value in series [2] (under the combination with AMG-510, KRAS-G12C inhibitor non-sensitive cell line NCI-H2122) is “good anti-tumor activity”.
